Experimental data reported in patent publication US8404708B2, “Dual NK1/NK3 receptor antagonists” (Hoffmann-La Roche Inc., priority 2004, dated 2013).
Like-named read-outs stand apart in the source and are kept apart here.

Assays:
human NK1 receptor = human NK1 receptor (Homo sapiens, UniProt P25103); assay: NK1 receptor binding, [3H]substance P displacement, CHO cell membranes
[1] = biological target: T1, Recombinant human NK3 (hNK3) receptor (Homo sapiens, UniProt P29371); assay: NK3 receptor binding, [3H]SR142801 displacement, membrane preparations
T1 construct: expressed in transfected cells
T1 sequence (P29371 1-465): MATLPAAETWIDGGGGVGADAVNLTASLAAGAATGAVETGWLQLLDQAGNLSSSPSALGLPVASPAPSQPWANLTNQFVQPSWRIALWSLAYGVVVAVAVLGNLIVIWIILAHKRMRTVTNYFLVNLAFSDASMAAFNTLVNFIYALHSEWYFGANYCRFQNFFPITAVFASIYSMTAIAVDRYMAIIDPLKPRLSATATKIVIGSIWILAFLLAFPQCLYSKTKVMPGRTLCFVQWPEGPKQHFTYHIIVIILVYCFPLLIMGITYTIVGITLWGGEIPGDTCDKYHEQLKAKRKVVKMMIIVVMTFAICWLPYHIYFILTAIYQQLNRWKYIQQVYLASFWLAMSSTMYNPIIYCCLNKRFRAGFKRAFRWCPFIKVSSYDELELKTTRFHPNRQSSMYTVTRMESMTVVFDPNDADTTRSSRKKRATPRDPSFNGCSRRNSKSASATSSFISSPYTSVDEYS
Summary of the method: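 Incubation ran 90 min at room temperature in 50 mM Tris-HCl pH 7.4 with 0.1% BSA, 4 mM MnCl2 and 1 μM phosphoramidon, using about 2.5 μg hNK3 membrane protein per well. Nonspecific binding was defined with 10 μM SB222200, and bound radioactivity was collected on PEI-soaked GF/C filters for scintillation counting.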

[2] = first value of the cell pKi NK1/NK3, human NK1 receptor, [3H]substance P
[3] = second value of the cell pKi NK1/NK3, hNK3 receptor, [3H]SR142801
[4] = first value of the cell NK1/NK3, read-out: pKi NK1 (converted)
[5] = second value of the cell NK1/NK3, read-out: pKi NK3 (converted)

Chain of human NK1 receptor (P25103 whole entry): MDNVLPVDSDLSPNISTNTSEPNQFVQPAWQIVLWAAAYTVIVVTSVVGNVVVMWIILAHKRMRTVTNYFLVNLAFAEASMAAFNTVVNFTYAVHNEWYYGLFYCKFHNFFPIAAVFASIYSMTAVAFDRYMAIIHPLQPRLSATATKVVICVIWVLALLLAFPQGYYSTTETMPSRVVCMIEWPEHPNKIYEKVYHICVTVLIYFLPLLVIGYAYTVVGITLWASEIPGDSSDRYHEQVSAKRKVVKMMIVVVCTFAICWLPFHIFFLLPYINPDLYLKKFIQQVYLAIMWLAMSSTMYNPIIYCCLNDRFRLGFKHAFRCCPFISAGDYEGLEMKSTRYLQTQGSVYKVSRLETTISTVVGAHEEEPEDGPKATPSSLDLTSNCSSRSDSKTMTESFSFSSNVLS

CC(=O)N1CCCN(c2cc(-c3ccccc3Cl)c(N(C)C(=O)C(C)(C)c3cc(C(F)(F)F)cc(C(F)(F)F)c3)cn2)CC1 [Example 63, N-[6-(4-Acetyl-[1,4]diazepan-1-yl)-4-(2-chloro-phenyl)-pyridin-3-yl]-2-(3,5-bis-trifluoromethyl-phenyl)-N-methyl-isobutyramide]
Ki (human NK1 receptor; [2]): 1.82 nM | Ki [1, 3]: 1.17 nM

Cc1cc(F)ccc1-c1cc(N2C[C@H](O)C[C@H]2CO)ncc1N(C)C(=O)C(C)(C)c1cc(Cl)cc(OC(F)F)c1 [Example 39, (2S,4R)-2-(3-Chloro-5-difluoromethoxy-phenyl)-N-[4-(4-fluoro-2-methyl-phenyl)-6-(4-hydroxy-2-hydroxymethyl-pyrrolidin-1-yl)-pyridin-3-yl]-N-methyl-isobutyramide]
Ki (human NK1 receptor; [2]): 1.05 nM | Ki [1, 3]: 1.29 nM

C[C@H](O)CNc1cc(-c2ccccc2Br)c(N(C)C(=O)C(C)(C)c2cc(C(F)(F)F)cc(C(F)(F)F)c2)cn1 [Example 131, (S)-2-(3,5-Bis-trifluoromethyl-phenyl)-N-[4-(2-bromo-phenyl)-6-(2-hydroxy-propylamino)-pyridin-3-yl]-N-methyl-isobutyramide]
Ki (human NK1 receptor; [2]): 1.07 nM | Ki [1, 3]: 4.27 nM

Cc1cc(F)ccc1-c1cc(N2C[C@H](O)C[C@H]2CO)ncc1N(C)C(=O)C(C)(C)c1cc(C(F)(F)F)cc(C(F)(F)F)c1 [Example 158, (2S,4R)-2-(3,5-Bis-trifluoromethyl-phenyl)-N-[4-(4-fluoro-2-methyl-phenyl)-6-(4-hydroxy-2-hydroxymethyl-pyrrolidin-1-yl)-pyridin-3-yl]-N-methyl-isobutyramide]
Ki (human NK1 receptor; [2]): 1.66 nM | Ki [1, 3]: 0.955 nM

COc1cc(Cl)cc(C(C)(C)C(=O)N(C)c2cnc(N3C[C@H](O)C[C@H]3CO)cc2-c2ccccc2Cl)c1 [Example 8, (2S,4R)-2-(3-Chloro-5-methoxy-phenyl)-N-[4-(2-chloro-phenyl)-6-(4-hydroxy-2-hydroxymethyl-pyrrolidin-1-yl)-pyridin-3-yl]-N-methyl-isobutyramide]
Ki (human NK1 receptor; [2]): 1.7 nM | Ki [1, 3]: 1.26 nM

CCCCCN(CCO)c1cc(-c2ccccc2Cl)c(N(C)C(=O)C(C)(C)c2cc(C(F)(F)F)cc(C(F)(F)F)c2)cn1 [Example 149, 2-(3,5-Bis-trifluoromethyl-phenyl)-N-{4-(2-chloro-phenyl)-6-[(2-hydroxy-ethyl)-pentyl-amino]-pyridin-3-yl}-N-methyl-isobutyramide]
Ki (human NK1 receptor; [2]): 1.29 nM | Ki [1, 3]: 6.17 nM

CCN(CCO)c1cc(-c2ccc(F)cc2)c(N(C)C(=O)C(C)(C)c2cc(C(F)(F)F)cc(C(F)(F)F)c2)cn1 [Example 116, 2-(3,5-Bis-trifluoromethyl-phenyl)-N-[6-[ethyl-(2-hydroxy-ethyl)-amino]-4-(4-fluoro-phenyl)-pyridin-3-yl]-N-methyl-isobutyramide]
Ki (human NK1 receptor; [2]): 3.89 nM | Ki [1, 3]: 32.4 nM

CN(C(=O)C(C)(C)c1cc(C(F)(F)F)cc(C(F)(F)F)c1)c1cnc(N2C[C@H](O)C[C@H]2CO)cc1-c1cccc(Cl)c1 [Example 206, (2S,4R)-2-(3,5-Bis-trifluoromethyl-phenyl)-N-[4-(3-chloro-phenyl)-6-(4-hydroxy-2-hydroxymethyl-pyrrolidin-1-yl)-pyridin-3-yl]-N-methyl-isobutyramide]
Ki (human NK1 receptor; [2]): 1.86 nM | Ki [1, 3]: 15.8 nM

Cc1ccccc1-c1cc(N2CCC[C@@H]2CO)ncc1N(C)C(=O)C(C)(C)c1cc(C(F)(F)F)cc(C(F)(F)F)c1 [Example 168, (R)-2-(3,5-Bis-trifluoromethyl-phenyl)-N-[6-(2-hydroxymethyl-pyrrolidin-1-yl)-4-o-tolyl-pyridin-3-yl]-N-methyl-isobutyramide]
Ki (human NK1 receptor; [2]): 2.09 nM | Ki [1, 3]: 10 nM

Cc1ccccc1-c1cc(NC[C@H](C)O)ncc1N(C)C(=O)C(C)(C)c1cc(C(F)(F)F)cc(C(F)(F)F)c1 [Example 120, (S)-2-(3,5-Bis-trifluoromethyl-phenyl)-N-[6-(2-hydroxy-propylamino)-4-o-tolyl-pyridin-3-yl]-N-methyl-isobutyramide]
Ki (human NK1 receptor; [2]): 1.38 nM | Ki [1, 3]: 10 nM

Cc1cc(F)ccc1-c1cc(N[C@H]2CCC[C@@H]2O)ncc1N(C)C(=O)C(C)(C)c1cc(C(F)(F)F)cc(C(F)(F)F)c1 [Example 154, (1S,2S)-2-(3,5-Bis-trifluoromethyl-phenyl)-N-[4-(4-fluoro-2-methyl-phenyl)-6-(2-hydroxy-cyclopentylamino)-pyridin-3-yl]-N-methyl-isobutyramide]
Ki (human NK1 receptor; [2]): 3.16 nM | Ki [1, 3]: 5.75 nM

CN(C(=O)C(C)(C)c1cc(C(F)(F)F)cc(C(F)(F)F)c1)c1cnc(N2CC[C@H](O)[C@H]2CO)cc1-c1cc(Cl)ccc1Cl [Example 270, (2R,3S)-2-(3,5-Bis-trifluoromethyl-phenyl)-N-[4-(2,5-dichloro-phenyl)-6-(3-hydroxy-2-hydroxymethyl-pyrrolidin-1-yl)-pyridin-3-yl]-N-methyl-isobutyramide]
Ki (human NK1 receptor; [4]): 2.63 nM | Ki [1, 5]: 2.19 nM

Cc1cc(F)ccc1-c1cc(N2C[C@@H](O)C[C@H]2CO)ncc1N(C)C(=O)C(C)(C)c1cc(C(F)(F)F)cc(C(F)(F)F)c1 [Example 238, (2S,4S)-2-(3,5-Bis-trifluoromethyl-phenyl)-N-[4-(4-fluoro-2-methyl-phenyl)-6-(4-hydroxy-2-hydroxymethyl-pyrrolidin-1-yl)-pyridin-3-yl]-N-methyl-isobutyramide]
Ki (human NK1 receptor; [4]): 1.23 nM | Ki [1, 5]: 1.02 nM

Cc1cc(F)ccc1-c1cc(N(C)C(CO)CO)ncc1N(C)C(=O)C(C)(C)c1cc(C(F)(F)F)cc(C(F)(F)F)c1 [Example 196, 2-(3,5-Bis-trifluoromethyl-phenyl)-N-{4-(4-fluoro-2-methyl-phenyl)-6-[(2-hydroxy-1-hydroxymethyl-ethyl)-methyl-amino]-pyridin-3-yl}-N-methyl-isobutyramide]
Ki (human NK1 receptor; [2]): 1.74 nM | Ki [1, 3]: 4.57 nM

Cc1cc(F)ccc1-c1cc(N2CCC[C@H]2CO)ncc1N(C)C(=O)C(C)(C)c1cccc(C(F)(F)F)c1 [Example 26, (S)-N-[4-(4-Fluoro-2-methyl-phenyl)-6-(2-hydroxymethyl-pyrrolidin-1-yl)-pyridin-3-yl]-N-methyl-2-(3-trifluoromethyl-phenyl)-isobutyramide]
Ki (human NK1 receptor; [2]): 3.02 nM | Ki [1, 3]: 5.75 nM

CN(C(=O)C(C)(C)c1cc(C(F)(F)F)cc(C(F)(F)F)c1)c1cnc(N2C[C@@H](O)C[C@H]2CO)cc1-c1ccccc1C(F)(F)F [Example 243, (2S,4S)-2-(3,5-Bis-trifluoromethyl-phenyl)-N-[6-(4-hydroxy-2-hydroxymethyl-pyrrolidin-1-yl)-4-(2-trifluoromethyl-phenyl)-pyridin-3-yl]-N-methyl-isobutyramide]
Ki (human NK1 receptor; [4]): 3.89 nM | Ki [1, 5]: 4.68 nM

Cc1ccccc1-c1cc(N2CC[C@H](O)[C@H](O)C2)ncc1N(C)C(=O)C(C)(C)c1cc(C(F)(F)F)cc(C(F)(F)F)c1 (racemic) [Example 185, (3RS,4SR)-2-(3,5-Bis-trifluoromethyl-phenyl)-N-(3,4-dihydroxy-4′-o-tolyl-3,4,5,6-tetrahydro-2H-[1,2′]bipyridinyl-5′-yl)-N-methyl-isobutyramide]
Ki (human NK1 receptor; [2]): 1.55 nM | Ki [1, 3]: 32.4 nM

CN(C(=O)C(C)(C)c1cc(C(F)(F)F)cc(C(F)(F)F)c1)c1cnc(N2C[C@H](O)C[C@H]2CO)cc1-c1ccc(F)cc1F [Example 220, (2S,4R)-2-(3,5-Bis-trifluoromethyl-phenyl)-N-[4-(2,4-difluoro-phenyl)-6-(4-hydroxy-2-hydroxymethyl-pyrrolidin-1-yl)-pyridin-3-yl]-N-methyl-isobutyramide]
Ki (human NK1 receptor; [4]): 1.51 nM | Ki [1, 5]: 6.61 nM

CC(=O)N[C@H]1CCN(c2cc(-c3ccc(F)cc3C)c(N(C)C(=O)C(C)(C)c3cc(C(F)(F)F)cc(C(F)(F)F)c3)cn2)C1 [Example 99, (S)-N-[6-(3-Acetylamino-pyrrolidin-1-yl)-4-(4-fluoro-2-methyl-phenyl)-pyridin-3-yl]-2-(3,5-bis-trifluoromethyl-phenyl)-N-methyl-isobutyramide]
Ki (human NK1 receptor; [2]): 0.813 nM | Ki [1, 3]: 55 nM

CC(=O)N[C@H]1CCN(c2cc(-c3ccccc3Br)c(N(C)C(=O)C(C)(C)c3cc(C(F)(F)F)cc(C(F)(F)F)c3)cn2)C1 [Example 133, (S)-N-[6-(3-Acetylamino-pyrrolidin-1-yl)-4-(2-bromo-phenyl)-pyridin-3-yl]-2-(3,5-bis-trifluoromethyl-phenyl)-N-methyl-isobutyramide]
Ki (human NK1 receptor; [2]): 0.794 nM | Ki [1, 3]: 2 nM

Cc1cc(F)ccc1-c1cc(N2CCC[C@@H]2CO)ncc1N(C)C(=O)C(C)(C)c1cc(C(F)(F)F)cc(C(F)(F)F)c1 [Example 93, (R)-2-(3,5-Bis-trifluoromethyl-phenyl)-N-[4-(4-fluoro-2-methyl-phenyl)-6-(2-hydroxymethyl-pyrrolidin-1-yl)-pyridin-3-yl]-N-methyl-isobutyramide]
Ki (human NK1 receptor; [2]): 1.12 nM | Ki [1, 3]: 7.41 nM

Cc1ccccc1-c1cc(NC[C@@H](C)O)ncc1N(C)C(=O)C(C)(C)c1cc(C(F)(F)F)cc(C(F)(F)F)c1 [Example 173, (R)-2-(3,5-Bis-trifluoromethyl-phenyl)-N-[6-(2-hydroxy-propylamino)-4-o-tolyl-pyridin-3-yl]-N-methyl-isobutyramide]
Ki (human NK1 receptor; [2]): 1.91 nM | Ki [1, 3]: 1.86 nM
